Experimental data as given in US8557603B2, “Synthetic peptides, methods and kits for diagnosing autoimmune diseases” (FlySun Development Co. Ltd., priority 2009, dated 2013).

System: IgA autoantibodies of patients with acute HSP
Assay: ELISA detection of IgA anti-β2-GPI-derived peptides antibodies
Format: binding, human
Conditions: for binding between IgA derived from 7 patients with acute HSP and the synthetic peptide: IgA1-7 at 10 (g/ml), n=7, OD higher than positive control (β2-GPI) regarded as significant, FIG. 8; for plasma level of IgA anti-β2-GPI peptide antibodies in children with acute HSP compared with healthy subjects: plasma 1:50, peptide coated at 10 (g/ml), expressed as OD, p<0.0001
Experimental: Circulating IgA immunoglobulins were isolated from 7 plasma samples positive for both CL and β2GPI by use of a commercial kit, Immobilized Jacalin (PIERCE, USA, USA), which isolates serum-circulating IgA1 by galactose-binding lectin.
Briefly, 96-well high binding plates (Costar, Cambridge, Mass., USA) are coated with human β-2-GPI peptides 1-15 at a concentration of 10 (g/ml in Tris-buffered saline (TBS, 0.05 M Tris-HCl and NaCl, PH 7.5). After incubating overnight at 4° C., plates are blocked with TBS containing 0.3% gelatin. Then, plasma samples (1:50 for IgA), and IgA fraction from patients (indicated concentrations) in TBS/0.1% gelatin were distributed into wells in duplicate and incubated for 1.5 hours at room temperature. A pooled normal human IgA (Jackson ImmunoResearch, West Grove, Pa., USA) will be used as negative controls at the same concentrations. After washing with TBS, bound human […] were detected with HRP-conjugated goat anti-human IgA (BioSource International, Camarillo, Calif., USA), and the peroxidase substrate tetramethylbenzidine (Kirkegaard & Perry Laboratories, Gaithersburg, Md., USA). Results were read at a wavelength of 450 nm against a background of 650 nm with a Thermomax plate reader (Molecular Devices Inc., Sunnyvale, Calif., USA).

| Substance | binding between IgA derived from 7 patients with acute HSP and the synthetic peptide | plasma level of IgA anti-β2-GPI peptide antibodies in children with acute HSP compared with healthy subjects (FIGS. 7, 8 and 9) | binding strength among the synthetic peptides (IgA anti-peptide antibodies, children with acute HSP, FIGS. 7, 8 and 9) |
| --- | --- | --- | --- |
| H2N-RYTTFEYPNTISFSCNTGFYLNGADSAK-COOH (H-RYTTFEYPNTISFSCNTGFYLNGADSAK-OH; listed as Homo sapiens) [P5, synthetic β2-GPI-derived peptide, residues 96-123] | significant binding | significantly higher |  |
| H2N-FKNGMLHGDKVSFFCKNKEK-COOH (H-FKNGMLHGDKVSFFCKNKEK-OH; listed as Homo sapiens) [P12, synthetic β2-GPI-derived peptide, residues 286-305] | significant binding | significantly higher |  |
| H2N-KATFGCHDGYSLDGPEEIECTKLGNWSAMPSCKASCKVPVKKATVVYQGERVKIQEK-COOH (H-KATFGCHDGYSLDGPEEIECTKLGNWSAMPSCKASCKVPVKKATVVYQGERVKIQEK-OH; cysteine pairing not given here; listed as Homo sapiens) [P11, synthetic β2-GPI-derived peptide, residues 229-285] | significant binding | significantly higher |  |
| H2N-KPGYVSRGGMRKFICPLTGLWPINTLK-COOH (H-KPGYVSRGGMRKFICPLTGLWPINTLK-OH; listed as Homo sapiens) [P3, synthetic β2-GPI-derived peptide, residues 52-78] | significant binding | significantly higher | most significant |
| H2N-KWSPELPVCAPIICPPPSIPTFATLRVYK-COOH (H-KWSPELPVCAPIICPPPSIPTFATLRVYK-OH; cysteine pairing not given here; listed as Homo sapiens) [P7, synthetic β2-GPI-derived peptide, residues 129-157] | significant binding | significantly higher |  |
